Source: patent publication US5869487A, “Pyrido[3,4-B]pyrazines for use as thrombin inhibitors” (Merck & Co., Inc., priority 1997, dated 1999)
pKi: −log10 of the molar value.

Biological target: T1, human α-thrombin (Homo sapiens, UniProt P00734)
T1 construct: Assays of human α-thrombin
Assay: In vitro assay for determining proteinase inhibition (human α-thrombin)
Assay type: biochemical
Details: 25° C., 0.05M TRIS buffer pH 7.4, 0.15M NaCl, 0.1% PEG; sar-PR-pna or Z-GPR-afc substrate
Procedure: In vitro assay for determining proteinase inhibition
Assays of human α-thrombin and human trypsin were performed at 25° C. in 0.05M TRIS buffer pH 7.4, 0.15M NaCl, 0.1% PEG. Trypsin assays also contained 1 mM CaCl2.
In assays wherein rates of hydrolysis of a p-nitroanilide (pna) substrate were determined, a Thermomax 96-well plate reader was used to measure (at 405 nm) the time dependent appearance of p-nitroaniline. sar-PR-pna (sarcosine-Pro-Arg-p-nitroanilide) was used to assay human α-thrombin (Km =125 μM) and human trypsin (Km =59 μM). p-Nitroanilide substrate concentration was determined from measurements of absorbance at 342 nm using an extinction coefficient of 8270 cm^-1 M^-1.
In certain studies with potent inhibitors (Ki <10 nM) where the degree of inhibition of thrombin was high, a more sensitive activity assay was employed. In this assay the rate of thrombin catalyzed hydrolysis of the fluorogenic substrate Z-GPR-afc (Cbz-Gly-Pro-Arg-7-amino-4-trifluoromethylcoumarin) (Km =27 μM) was determined from the increase in fluorescence at 500 nm (excitation at 400 nm) associated with production of 7-amino-4-trifluoromethyl coumarin. Concentrations of stock solutions of Z-GPR-afc were determined from measurements of absorbance at 380 nm of the 7-amino-4-trifluoromethyl coumarin produced upon complete hydrolysis of an aliquot of the stock solution by thrombin.
Activity assays were performed by diluting a stock solution of substrate at least tenfold to a final concentration 0.5 Km into a solution containing enzyme or enzyme equilibrated with inhibitor. Times required to achieve equilibration between enzyme and inhibitor were determined in control experiments. Initial velocities of product formation in the absence (Vo) or presence of inhibitor (Vi) were measured. Assuming competitive inhibition, and that unity is negligible compared Km /[S], […] (where [S], [I], and e respectively represent the total concentrations, of substrate, inhibitor and enzyme), the equilibrium constant (Ki) for dissociation of the inhibitor from the enzyme can be obtained from the dependence of Vo /Vi on [I] shown in equation 1.

Structure (SMILES)	pKi
Cc1nc(N)ccc1CNC(=O)Cn1c(C)cc2c(c1=O)NC(=O)[C@H](CC1CC1)N2	> 9.00
Cc1nc(N)ccc1CNC(=O)Cn1c(C)cc2c(c1=O)NC(=O)CN2Cc1ccccc1	< 9.00
Cc1cc2c(c(=O)n1CC(=O)NCc1ccccc1OCC(=O)NC1CC1)NC(=O)[C@H](CC1CC1)N2C	> 9.00
Cc1nc(N)ccc1CNC(=O)Cn1c(C)cc2c(c1=O)NC(=O)[C@@H]1CCCCN21	< 9.00
Cc1nc(N)ccc1CNC(=O)Cn1c(C)cc2c(c1=O)NC(=O)[C@H](CC1CC1)N2C	> 9.00
Cc1nc(N)ccc1CNC(=O)Cn1c(C)cc2c(c1=O)NC(=O)[C@H](Cc1ccccc1)N2	> 9.00
Cc1cc2c(c(=O)n1CC(=O)NCc1ccc(N)nc1)NC(=O)[C@H](CC1CC1)N2C	> 9.00
Cc1cc2c(c(=O)n1CC(=O)NCc1cc(Cl)ccc1OCC(=O)NC1CC1)NC(=O)[C@H](Cc1ccccc1)N2	> 9.00
